The results in this text go back to US20220282217A1, “COMPOSITIONS AND METHODS FOR PREPARING T CELL COMPOSITIONS AND USES THEREOF” (priority 2019, published 2022).

Read-outs that look alike come from different tables or passages of the source. Where a SMILES comes first, the peptide text is derived from it.

The target in the assay is HLA-A02.01 (Homo sapiens, UniProt P04439, D140Y/D185E/D98H/E176V/E277Q/G131W/G231S/I119V/I121R/I166T/I218V/L300P/L318F/N151K/N90K/P208A/P217A/Q86G/Q94H/R138H/R169H/T345S). The assay is described as follows: Class I MHC peptide binding affinity (displacement of radiolabeled reference peptide). Particulars: for IC50: allele A02.01, (nM)). On the procedure: In brief, MHCI complexes were prepared and bound to radiolabeled reference peptides. Peptides were incubated at varying concentrations with these complexes for 2 days, and the amount of remaining radiolabeled peptide bound to […] was measured using size exclusion gel-filtration.

Where [1] appears, read: read-out: Observed Affinity (IC50.

In general, IC50 refers to the concentration at which inhibition is half-maximal. Turning to `CSCC[C@H](NC(=O)[C@H](CCCNC(=N)N)NC(=O)[C@H](CCCNC(=N)N)NC(=O)[C@H](Cc1ccc(O)cc1)NC(=O)[C@H](CC(=O)O)NC(=O)[C@H](Cc1c[nH]c2ccccc12)NC(=O)[C@H](CO)NC(=O)[C@H](CO)NC(=O)[C@H](CC(C)C)NC(=O)[C@@H](N)Cc1ccccc1)C(=O)O` (H-FLSSWDYRRM-OH; N-terminus and C-terminus assumed), the IC50 under setting [1] is 324 nM. For `CC[C@H](C)[C@H](NC(=O)[C@H](CCCCN)NC(=O)[C@H](Cc1ccc(O)cc1)NC(=O)[C@@H](NC(=O)[C@@H](NC(=O)[C@H](CC(=O)O)NC(=O)[C@H](CO)NC(=O)[C@H](CCSC)NC(=O)[C@@H](NC(=O)[C@@H](N)Cc1ccccc1)C(C)C)[C@@H](C)O)[C@@H](C)O)C(=O)O` (H-FVMSDTTYKI-OH; N-terminus and C-terminus assumed), for the setting “Observed Affinity (IC50”, the IC50 came out at 62.4 nM. In the case of `CC[C@H](C)[C@H](NC(=O)[C@H](CO)NC(=O)[C@H](CC(C)C)NC(=O)CN)C(=O)N[C@@H](CO)C(=O)N[C@@H](CS)C(=O)N[C@H](C(=O)N[C@H](C(=O)N[C@@H](CC(C)C)C(=O)O)[C@@H](C)O)[C@@H](C)O` (H-GLSISCTTL-OH; N-terminus and C-terminus assumed), the IC50 under setting [1] was determined as 114 nM. As to `CC[C@H](C)[C@H](NC(=O)[C@@H]1CCCN1C(=O)[C@H](CCCNC(=N)N)NC(=O)[C@H](CCC(N)=O)NC(=O)[C@H](CC(N)=O)NC(=O)[C@H](CCSC)NC(=O)CN)C(=O)N[C@@H](CC(C)C)C(=O)N[C@H](C(=O)O)[C@@H](C)O` (H-GMNQRPILT-OH; N-terminus and C-terminus assumed), the IC50 under setting [1] was found to be 3030 nM. As for `CC[C@H](C)[C@H](NC(=O)[C@@H]1CCCN1C(=O)[C@H](CCCNC(=N)N)NC(=O)[C@H](Cc1c[nH]c2ccccc12)NC(=O)[C@H](CC(N)=O)NC(=O)[C@H](CCSC)NC(=O)CN)C(=O)N[C@@H](CC(C)C)C(=O)N[C@H](C(=O)O)[C@@H](C)O` (H-GMNWRPILT-OH; N-terminus and C-terminus assumed), under setting [1], the concentration for half-maximal inhibition (IC50) worked out at 1130 nM. Consider `CC[C@H](C)[C@H](NC(=O)[C@H](CC(N)=O)NC(=O)[C@H](CCSC)NC(=O)[C@@H](N)Cc1c[nH]cn1)C(=O)N[C@@H](C)C(=O)N[C@@H](CC(N)=O)C(=O)N[C@@H](CC(C)C)C(=O)N[C@@H](CC(C)C)C(=O)NCC(=O)N[C@@H](C)C(=O)O` (H-HMNIANLLGA-OH; N-terminus and C-terminus assumed), for which, for the setting “Observed Affinity (IC50”, the concentration for half-maximal inhibition (IC50) is 430 nM. With `CC[C@H](C)[C@H](N)C(=O)N[C@@H](C)C(=O)N[C@@H](CC(N)=O)C(=O)N[C@@H](CC(C)C)C(=O)N[C@@H](CC(C)C)C(=O)NCC(=O)N[C@@H](C)C(=O)N[C@@H](CS)C(=O)N[C@H](C(=O)N[C@H](C(=O)O)[C@@H](C)CC)[C@@H](C)O` (H-IANLLGACTI-OH; N-terminus and C-terminus assumed), the IC50 under setting [1] was 6420 nM. Molecule `CC[C@H](C)[C@H](N)C(=O)N[C@H](C(=O)N[C@@H](CCC(=O)O)C(=O)N[C@@H](Cc1ccccc1)C(=O)N[C@@H](CCSC)C(=O)N[C@H](C(=O)N[C@@H](Cc1ccc(O)cc1)C(=O)NCC(=O)N[C@@H](CC(N)=O)C(=O)N[C@@H](CC(C)C)C(=O)O)[C@@H](C)O)[C@@H](C)CC` (H-IIEFMTYGNL-OH; N-terminus and C-terminus assumed) came in with an IC50 (Observed Affinity (IC50) of 9700 nM. Regarding `CC[C@H](C)[C@H](N)C(=O)N[C@H](C(=O)N[C@@H](CCC(=O)O)C(=O)N[C@@H](Cc1ccc(O)cc1)C(=O)N[C@@H](CS)C(=O)N[C@@H](Cc1ccccc1)C(=O)N[C@@H](Cc1ccc(O)cc1)C(=O)NCC(=O)N[C@@H](CC(=O)O)C(=O)N[C@@H](CC(C)C)C(=O)O)[C@@H](C)CC` (H-IIEYCFYGDL-OH; N-terminus and C-terminus assumed), the IC50 under setting [1] came out at 1090 nM. In turn, `CC[C@H](C)[C@H](N)C(=O)N[C@H](C(=O)N[C@H](C(=O)N[C@@H](CCC(=O)O)C(=O)N[C@@H](Cc1ccccc1)C(=O)N[C@@H](CCSC)C(=O)N[C@H](C(=O)N[C@@H](Cc1ccc(O)cc1)C(=O)NCC(=O)O)[C@@H](C)O)[C@@H](C)CC)[C@@H](C)CC` (H-IIIEFMTYG-OH; N-terminus and C-terminus assumed) came in with an IC50 (Observed Affinity (IC50) of 779 nM.

Take `CC[C@H](C)[C@H](N)C(=O)N[C@@H](CC(C)C)C(=O)N[C@H](C(=O)N[C@@H](CCCNC(=N)N)C(=O)N[C@@H](CCCCN)C(=O)N[C@@H](C)C(=O)N[C@@H](CCSC)C(=O)N[C@H](C(=O)N[C@H](C(=O)O)C(C)C)[C@@H](C)O)[C@@H](C)CC` (H-ILIRKAMTV-OH; N-terminus and C-terminus assumed): under setting [1], the IC50 worked out at 19.5 nM.

In the case of `CC[C@H](C)[C@H](N)C(=O)N[C@@H](CC(C)C)C(=O)N[C@@H](CC(C)C)C(=O)N1CCC[C@H]1C(=O)N[C@@H](CCC(=O)O)C(=O)N[C@@H](CC(=O)O)C(=O)N[C@H](C(=O)N1CCC[C@H]1C(=O)N1CCC[C@H]1C(=O)N[C@@H](CC(C)C)C(=O)O)[C@@H](C)O` (H-ILLPEDTPPL-OH; N-terminus and C-terminus assumed), the IC50 under setting [1] turned out to be 6.7 nM. Take `CC[C@H](C)[C@H](N)C(=O)N[C@@H](CC(C)C)C(=O)N[C@@H](CCSC)C(=O)N[C@@H](CCC(=O)O)C(=O)N[C@@H](CC(C)C)C(=O)N[C@@H](CCSC)C(=O)N[C@@H](C)C(=O)NCC(=O)NCC(=O)N[C@@H](CC(=O)O)C(=O)O` (H-ILMELMAGGD-OH; N-terminus and C-terminus assumed): the half-maximal inhibitory concentration (IC50) under setting [1] worked out at 3450 nM. With `CC[C@H](C)[C@H](N)C(=O)N[C@@H](CCSC)C(=O)N[C@@H](CO)C(=O)N[C@@H](CC(C)C)C(=O)N[C@@H](Cc1c[nH]c2ccccc12)C(=O)NCC(=O)N[C@@H](CC(C)C)C(=O)N[C@H](C(=O)N[C@@H](CO)C(=O)O)C(C)C` (H-IMSLWGLVS-OH), under setting [1], the IC50 was 7320 nM.

With `CC[C@H](C)[C@H](N)C(=O)N[C@H](C(=O)N[C@@H](C)C(=O)N[C@@H](Cc1ccccc1)C(=O)N[C@@H](Cc1ccccc1)C(=O)N[C@@H](Cc1ccccc1)C(=O)N[C@@H](CS)C(=O)N[C@@H](Cc1c[nH]c2ccccc12)C(=O)N[C@H](C(=O)O)[C@@H](C)CC)[C@@H](C)O` (H-ITAFFFCWI-OH; N-terminus and C-terminus assumed), the IC50 under setting [1] came out at 7490 nM. With `CC[C@H](C)[C@H](N)C(=O)N[C@H](C(=O)N[C@@H](C)C(=O)N[C@@H](Cc1ccccc1)C(=O)N[C@@H](Cc1ccccc1)C(=O)N[C@@H](CC(C)C)C(=O)N[C@@H](CC(C)C)C(=O)N[C@@H](CC(=O)O)C(=O)N[C@H](C(=O)O)[C@@H](C)CC)[C@@H](C)O` (H-ITAFFLLDI-OH; N-terminus and C-terminus assumed), the IC50 under setting [1] came to 78.7 nM. Take `CC[C@H](C)[C@H](N)C(=O)N[C@H](C(=O)N[C@@H](CO)C(=O)N[C@@H](CCCNC(=N)N)C(=O)N[C@H](C(=O)N[C@@H](CC(C)C)C(=O)N[C@@H](CC(C)C)C(=O)N[C@@H](CC(C)C)C(=O)N[C@H](C(=O)O)C(C)C)[C@@H](C)O)C(C)C` (H-IVSRTLLLV-OH; N-terminus and C-terminus assumed): under setting [1], the IC50 was 12.7 nM. Take `CC[C@H](C)[C@H](NC(=O)[C@H](CC(C)C)NC(=O)[C@@H]1CCCN1C(=O)[C@H](Cc1ccccc1)NC(=O)[C@H](CC(C)C)NC(=O)[C@H](CCC(=O)O)NC(=O)[C@@H]1CCCN1C(=O)CNC(=O)[C@@H](N)CCCCN)C(=O)O` (H-KGPELFPLI-OH): the IC50 under setting [1] came to 101 nM. With `CC[C@H](C)[C@H](NC(=O)[C@@H](N)CCCCN)C(=O)N[C@H](C(=O)N[C@@H](CCC(=O)O)C(=O)N[C@@H](CCC(N)=O)C(=O)N[C@@H](CCC(=O)O)C(=O)N[C@@H](CCCCN)C(=O)N[C@@H](CC(=O)O)C(=O)N[C@@H](Cc1ccccc1)C(=O)N[C@@H](CC(C)C)C(=O)O)[C@@H](C)O` (H-KITEQEKDFL-OH; N-terminus and C-terminus assumed), the IC50 under setting [1] worked out at 1400 nM. Consider `CSCC[C@H](NC(=O)[C@H](CC(C)C)NC(=O)[C@H](CCCCN)NC(=O)[C@@H](N)CCCCN)C(=O)N[C@@H](CC(C)C)C(=O)N[C@@H](CC(C)C)C(=O)N[C@@H](CCCNC(=N)N)C(=O)N[C@@H](CC(C)C)C(=O)N[C@@H](CC(N)=O)C(=O)N[C@@H](CC(C)C)C(=O)O` (H-KKLMLLRLNL-OH; N-terminus and C-terminus assumed), for which the IC50 under setting [1] stood at 289 nM. Turning to `CC(C)C[C@H](NC(=O)[C@H](CO)NC(=O)[C@@H](NC(=O)[C@@H](NC(=O)[C@H](CO)NC(=O)[C@H](CO)NC(=O)[C@H](Cc1c[nH]c2ccccc12)NC(=O)[C@H](CCC(N)=O)NC(=O)[C@@H](N)CCCCN)C(C)C)[C@@H](C)O)C(=O)O` (H-KQWSSVTSL-OH; N-terminus and C-terminus assumed), the IC50 under setting [1] was determined as 26.5 nM. With `CC(C)C[C@H](NC(=O)[C@H](CCCNC(=N)N)NC(=O)[C@@H](NC(=O)[C@H](CC(C)C)NC(=O)[C@H](CO)NC(=O)[C@@H](N)CCCCN)C(C)C)C(=O)N[C@@H](CO)C(=O)N[C@@H](CO)C(=O)N[C@@H](CS)C(=O)N[C@H](C(=O)O)C(C)C` (H-KSLVRLSSCV-OH; N-terminus and C-terminus assumed), the IC50 under setting [1] was 280 nM. For the molecule `CC[C@H](C)[C@H](NC(=O)[C@@H](N)CC(C)C)C(=O)N[C@@H](CCSC)C(=O)N[C@@H](CCC(N)=O)C(=O)N[C@@H](CC(C)C)C(=O)N[C@@H](CCSC)C(=O)N1CCC[C@H]1C(=O)N[C@@H](Cc1ccccc1)C(=O)NCC(=O)O` (H-LIMQLMPFG-OH; N-terminus and C-terminus assumed), where the note is “EGFR T790M peptides, HLA allele A02.01, read-out: Affinity”, the Kd was 3340 nM. The IC50 under setting [1] worked out at 3510 nM. As to `CC[C@H](C)[C@H](NC(=O)[C@@H](N)CC(C)C)C(=O)N[C@H](C(=O)N[C@@H](CO)C(=O)N[C@@H](CCCNC(=N)N)C(=O)N[C@H](C(=O)N[C@@H](CC(C)C)C(=O)N[C@@H](CC(C)C)C(=O)N[C@@H](CC(C)C)C(=O)N[C@H](C(=O)O)C(C)C)[C@@H](C)O)C(C)C` (H-LIVSRTLLLV-OH; N-terminus and C-terminus assumed), the IC50 under setting [1] is 10900 nM.
